According to patent publication US11337975B2, “Pharmaceutical combinations comprising a histone deacetylase inhibitor and a CD38 inhibitor and methods of use thereof” (Acetylon Pharmaceuticals, Inc., priority 2016, dated 2022):

Legend:
Type in all cases: cell-based
[1] = system: RPMI-8226 multiple myeloma cells; assay: CD38 surface level by FACS, RPMI-8226 cells; conditions: various doses, 48 hours, FACS (FIG. 1A)
[2] = system: MM.1S multiple myeloma cells; assay: CD38 surface level by FACS, MM.1S cells; conditions: various doses, 48 hours, FACS (FIG. 1B)
[3] = system: H929 multiple myeloma cells; assay: Anti-CD38 antibody-dependent cell-mediated cytotoxicity (Calcein-AM) in H929 cells; conditions: 0.5 μM-2 μM for 24 hours
Description: Multiple myeloma cells were incubated with Calcein-AM (Invitrogen, 2 μg/ml/1 million cells) for 30 min at 37° C. After washing, the cells were used for target cells. Mononuclear cells were obtained from healthy volunteer peripheral blood by Ficoll-Paque density centrifugation and used for effector cells. Both target and effector cells (E/T=15-20) were incubated for 3-4 h and culture supernatant were subjected to measurement of fluorescence using a 490 nm excitation filter and a 520 emission filter. Percent specific lysis was calculated as follows, % specific lysis=[experiment fluorescence−spontaneous fluorescence (no effector)]/[complete lysis (100% killing by detergent)−spontaneous fluorescence (no effector)]×100 Flow Cytometry-Based Ex Vivo ADCC Assay
Cells were stained with Calcein-AM and incubated with peripheral blood mononuclear cells at a ratio of 20:1 for 3 hours.

[4] = system: patient-derived multiple myeloma cells; assay: Ex vivo anti-CD38 ADCC in autologous setting, patients' bone marrow aspirates; conditions: anti-CD38 antibody 0.5 μg/ml with or without Compound B 0.5 μM, 72 hours (FIG. 3A)
Description: After bone marrow aspiration, fresh bone marrow mononuclear cells (MNC) were obtained by ammonium chloride based-lyses of red cells followed by washing in phosphate-buffered saline (PBS). […] The cells were incubated for 72 h at 37° C. in 5% CO2. The viability of primary MM cells in BM MNC was determined by near infrared (n-IR) viability dyes. The surviving CD138+MM cells were enumerated in the presence of Flow-Count Fluorospheres (Beckman Coulter, CA, USA), to determine absolute numbers of viable MM cells. The percentage of daratumumab-mediated ADCC was then calculated using the following formula: % lysis cells=100−[(absolute number of surviving CD138+ cells in the presence of daratumumab/absolute number of surviving CD138+ cells in the presence of control antibody)×100%]. Phenotypic analyses of MNC were performed using a single 5-color combination of monoclonal antibodies containing CD138-PE/CD38-APC/n-IR-viability (BioLegend, San Diego, Calif., USA). Plasma cells in BM MNC were identified by CD138-PE and CD38-APC staining, and expression of CD38 on plasma cells were determined (BD Biosciences, San Jose, Calif., USA). After incubation, cells were washed twice in PBS containing 2% BSA, and then resuspended in PBS for analysis on a Fortessa cytometer (Becton Dickinson, Mountain View, Calif.). […]
The average cytotoxicity (mean±SD) was calculated from 6 patients' samples (see also FIG. 3B).

H929 cells = assay: Anti-CD38 ADCC in CFSE-stained H929 cells with PBMCs, flow cytometry; conditions: pomalidomide 0.1 μM, Compound B 0.25, 0.5, 1 μM, 72 h, then anti-CD38 antibody 0.5 μg/ml 3 hours (FIG. 6)
Description: The cells were then incubated with an anti-CD38 antibody (0.5 μg/ml) for 3 hours. Cytotoxicity was assessed by flow cytometry.

SMILES: O=C(CCCCCCNC(=O)c1cnc(N(c2ccccc2)c2ccccc2)nc1)NO [Compound A, 2-(diphenylamino)-N-(7-(hydroxyamino)-7-oxoheptyl)pyrimidine-5-carboxamide]
- percentage of CD38 positive cells [1]: increased
- percentage of CD38 positive cells [2]: increased
- Percent specific lysis ([3]; PBMC 20:1 for 3 hours (FIG. 2A)): increased as concentration of Compound A increased
- percent augmentation ([3]; PBMC 20:1 for 3 hours (FIG. 2B)): increased as concentration of Compound A increased

SMILES: O=C(CCCCCCNC(=O)c1cnc(N(c2ccccc2)c2ccccc2Cl)nc1)NO [Compound B, 2-((2-chlorophenyl)(phenyl)amino)-N-(7-(hydroxyamino)-7-oxoheptyl)pyrimidine-5-carboxamide]
- percentage of CD38 positive cells [1]: increased
- percentage of CD38 positive cells [2]: increased
- anti-CD38 antibody dependent cell mediated cytotoxicity [4]: increased
- anti-CD38 antibody-induced cytotoxicity (ADCC) (H929 cells): enhanced
